# In patent US20110039904A1, “Alcohol alkoxylates, agents comprising the same and use of the alcohol alkoxylates as adjuvants in the agrochemical field” (BASF SE, priority 2008, published 2011):
# Test system: leaf rust of wheat "Puccinia recondita"
# Assay: Biotest: curative control of leaf rust of wheat (fungicidal efficacy of epoxiconazole with adjuvant)
# Assay type: in vivo, Puccinia recondita on wheat seedlings "Kanzler"
# Conditions: 50 ppm epoxiconazole without adjuvant; sprayed 2 days after inoculation; rated after 10 days; wheat seedlings, greenhouse
# Description: 125 g/l epoxiconazole were ground together with in each case 20 g/l dispersant (Atlas G 5000^1, Synperonic A^1) and 50 g/l propylene glycol in aqueous medium in a stirred-ball mill (dyno-mill) until a particle size of 80% <2 μm was reached. To the mixture were added 3 g/l per liter antifoam, for example Rhodorsil 426^2, 3 g/l thickener, for example Rhodopol 23^2, and a biocide, for example Acticide MBS^3. The respective adjuvant, in aqueous solution or in a solvent, for example Solvesso, was stirred into this mixture, so that the final concentration of the formulation is composed of 62.5 g/l epoxiconazole and 125 g/l adjuvant.
# Biotest (curative control of leaf rust of wheat):
# Leaves of wheat seedlings of the species “Kanzler” which had been grown in pots were dusted, in the two-leaf stage, with spores of leaf rust of wheat “Puccinia recondita” and incubated for 2 days in the greenhouse at high atmospheric humidity. In fully automated spray cabins, the plants were then sprayed with the formulations which comprised the active ingredients and adjuvants specified hereinbelow. The spray mixtures comprised 50 ppm epoxiconazole and 100 ppm adjuvant. The ratio active ingredient to adjuvant was, accordingly, 1:2. […] After 10 days, the extent of the leaf rust disease was determined visually as disease percent of the total leaf area. 3 pots were evaluated for each combination.
compound,measurement,value
"Fc1ccc([C@]2(Cn3cncn3)O[C@H]2c2ccccc2Cl)cc1 (racemic) [Epoxiconazole, epoxiconazole]","% infection (leaf rust disease percent of the total leaf area, determined visually)",23%
